Laboratory results from a melting point compilation (Tetko et al.; mined from patent text by program, amines drawn as free bases though some values may be those of a salt).

| Structure (SMILES) | melting point |
| --- | --- |
| COc1cc(Nc2c(C#N)cnc3cc(-c4ccc(CN5CCOCC5)cc4)sc23)c(Cl)cc1Cl | 244 to 245 °C |
| CCCCCCCCCCCCCCCCCCOCC(COC(c1ccccc1)(c1ccccc1)c1ccccc1)OS(=O)(=O)c1ccc(C)cc1 (stereo not given) | 52 to 53 °C |
| Nc1nc(N)c(-c2cccc(Cl)c2Cl)c(COc2ccccc2)n1 | 211 to 213 °C |
| O=[N+]([O-])c1ccc(-c2nc3c(Cl)ncnc3o2)cc1 | 231 °C |
| COC(CN(C)C(=O)Nc1nnc(C(C)Oc2ccc(Cl)c(Cl)c2)s1)OC (stereo not given) | 124 to 127 °C |
| CC1(C)Oc2ccc(C#N)cc2C(n2ccccc2=O)C1O (stereo not given) | 243 °C |
| CN(C)c1cc2nc(C(C)(C)C)sc2cc1NC(N)=S | 275 to 280 °C |
| CCOC(=O)N1CCC(n2ccc3ccccc32)CC1 | 127 °C |
| Cc1nc(-c2cc3cc(OCCNC[C@H](O)c4cccc(Cl)c4)ccc3o2)cs1 | 127 to 129 °C |
| Cc1ccccc1CCOS(N)(=O)=O | 50 to 52 °C |
| COc1cc(C=O)cc2c(N(C)C)cc(C)nc12 | 127 to 129 °C |
| Cc1cc(N2CCN(Cc3ccc(F)cc3)C2=O)sc1C(=O)NCc1cccnc1 | 119 to 120 °C |
| O=[N+]([O-])c1ccc2[nH]cc(Cn3ccnc3)c2c1 | 230 to 232 °C |
| CCOc1ccccc1C=[N+]([O-])C1CCCCC1 | 124 °C |
| Cc1cc2cccc(Br)c2nc1C | 78 °C |
| CC(C)(C)OC(=O)N1CCC(Sc2cc(C(C)(C)C)c(O)c(C(C)(C)C)c2)CC1 | 151 to 152 °C |
| O=[N+]([O-])c1ccc(OS(=O)(=O)c2cccnc2Cl)cc1 | 127 to 128 °C |
| Cc1nc(-c2ncn3c2[C@@H]2CCCN2C(=O)c2c(Cl)cccc2-3)no1 | 205 to 206 °C |
| COC(=O)c1cccc(-c2ccc3c(c2)NCC3)c1 | 104 to 105 °C |
| COc1cccc(COc2ncc(F)c(NS(N)(=O)=O)n2)c1 | 126 to 130 °C |
| CC(C)(C)CC(C)(C)c1ccc(Oc2cc3nc(C(C)(C)C)oc3cc2[N+](=O)[O-])cc1 | 77 to 78 °C |
| Cn1c(CC#N)ccc1C(=O)c1ccc(Cl)cc1 | 120 to 124 °C |
| c1ccc2c3c([nH]c2c1)C(c1ccc2c(c1)OCO2)NCC3 (stereo not given) | 173 °C |
| O=C(Cc1ccncc1)[N+]1([O-])CCC(C2c3ccc(Cl)cc3CCc3cccnc32)CC1 (stereo not given) | 125 to 126 °C |
| CCCCOc1ncc(C(C)=O)cc1-c1nc2c(CC)n(CC3CC3)nc2c(=O)[nH]1 | 184 to 185 °C |

| Structure (SMILES) | melting point |
| --- | --- |
| CN(C)CCCN1c2ccccc2C(c2ccccc2F)=Nc2cccnc21 | 92 to 94 °C |
| O=C(O)c1cnn2c(-c3cccc(C(F)(F)F)c3)ccnc12 | 248 to 250 °C |
| C=CS(=O)CCNC(=O)CCS(=O)(=O)C=C (stereo not given) | 93 °C |
| CN(C)Cc1cnn(C)c1-c1ccc(Cl)cc1C(O)c1ccccc1F (stereo not given) | 125 to 127 °C |
| CCS(=O)(=O)c1ccc(C(CC2CCCC2)C(=O)O)cc1 (stereo not given) | 137 to 138 °C |
| CCCCNc1cc(C(=O)O)cc(S(N)(=O)=O)c1Nc1ccccc1 | 230 to 231 °C |
| Cc1ccc(S(=O)(=O)OCC2CCn3c(nc4ccccc43)S2)cc1 (stereo not given) | 145 to 147 °C |
| CC(=O)Nc1ccc(OC(C)=O)c(C)c1C | 155 to 156 °C |
| Cc1cc(=O)c2ccc(OCCCN3CCC(NC(=O)Cc4ccccc4)CC3)cc2o1 | 172 to 173 °C |
| CC(c1ccccc1)c1cc2c(=O)[nH]c(N)nc2s1 (stereo not given) | 260 to 270 °C |
| O=C1NCCN1Cc1ccc(Cl)c(Cl)c1 | 129 to 130 °C |
| COc1ccc2c(=O)cc(CS(C)=O)oc2c1 (stereo not given) | 157 to 159 °C |
| CNc1nc2ccccc2n1CCO | > 200 °C |
| Cc1cccc(-c2nc(N)sc2-c2ccc(F)c(-c3ccc(S(C)(=O)=O)cc3)c2)n1 | 202 to 204 °C |
| Cc1cc(Cl)c(C(=O)c2ccccc2)c(Cl)c1 | 75.5 to 76.5 °C |
| CC1CCC(NS(N)(=O)=O)CC1 (stereo not given) | 109 to 110 °C |
| OCCCc1cn(-c2ccc(F)cc2)c2ccc(Cl)cc12 | 67 to 69 °C |
| CC(=O)C(=Cc1ccc(S(C)(=O)=O)cc1)C(C)=O | 139 to 140 °C |
| O=C(Nc1ccccc1N1CCc2cc(Cl)ccc21)c1ccccc1 | 44 to 46 °C |
| Cc1nn(C(C)(C)C)c(N)c1C#N | 156 to 157 °C |
| Cc1cc(O)ccc1OCc1ccccc1 | 70 to 71 °C |
| CCCCOc1cc(CC(=O)O)n(Cc2ccc(Cl)cc2Cl)n1 | 105 to 108 °C |
| CC(=O)Nc1cc(F)ccc1C(=O)NCCN1CCC2(CC1)C(=O)NCN2c1ccc(F)cc1 | 195 °C |
| CC(=O)NC(C)Cc1cc2c(cc1CCl)OCO2 (stereo not given) | 132 to 133 °C |
| Cc1cn(C2OC(CO)C(O)C2F)c(=O)[nH]c1=O (stereo not given) | 185 to 186 °C |

| Structure (SMILES) | melting point |
| --- | --- |
| CN1CCN(C(=O)C(=O)Nc2cc(C#N)ccc2O)CC1 | 256 °C |
| CCc1cc(Nc2cc(Cl)c(C(F)(F)F)cc2[N+](=O)[O-])c(OC)cc1OC | 161 to 162 °C |
| O=C1CNc2ccc(F)cc2O1 | 199 °C |
| C#Cc1ccc(Nc2c(C(=O)NOCCO)ccc(F)c2F)c(F)c1 | 162 °C |
| O=C(Nc1cccc(Cl)c1)NN1CC=CCC1 | 146 to 147 °C |
| O=C(NCc1ccc(-c2n[nH]c3c2Cc2ccccc2-3)s1)N1CCOCC1 | 240 to 247 °C |
| Cn1c(CCCO)nc2cccnc21 | > 300 °C |
| COc1nc(C)cnc1NS(=O)(=O)c1cccnc1-c1ccc(C=CC(=O)O)cc1 | 233 to 235 °C |
| CCCS(=O)c1cccnc1S(=O)(=O)NC(C)(C)C (stereo not given) | 138 to 140 °C |
| CCCC(O)C(C)C(=O)n1c(=O)oc2ccccc21 (stereo not given) | 123 to 124 °C |
| COC(=O)C(O)Cc1ccc(OCCN(C)c2nc3ccccc3o2)cc1 (stereo not given) | 100 to 112 °C |
| CC(C)C(O)(CCc1ccc(OCc2ccccc2)cc1)CC(=O)O (stereo not given) | 97 to 98 °C |
| Cc1ccc(F)cc1C1CC(=O)c2c(C)cnnc2C1 (stereo not given) | 127 to 128 °C |
| CCCc1c(OCCCOc2cc(OCc3ccccc3)c(-c3ccc(F)cc3)cc2CC)cccc1Oc1cc(F)ccc1C(=O)OC | 77 to 78 °C |
| COc1cc(C=CC=O)ccc1OCc1coc(-c2ccccc2)n1 | 144 to 145 °C |
| Nc1ccc(OCc2ccc(Cl)cc2)cc1F | 73 to 75 °C |
| CCCCc1ncc(/C=C(\Cc2ccc(N(C)C)cc2)C(=O)O)n1Cc1ccccc1Cl | 171 to 172 °C |
| COc1ccc(C2=NNC(=O)[C@H]3CC=CC[C@@H]23)cc1OC1CCCC1 (relative stereo) | 166 to 168 °C |
| CN1C=C(S(=O)(=O)C(F)(F)F)C(Cl)(c2ccc(Cl)cc2)C1 (stereo not given) | 117 to 119 °C |
| COc1ccc2c(c1)Oc1c(cccc1OCc1ccccc1)C2 | 107 to 108 °C |
| CCc1cn2c(N)c(Cl)cc(C(=O)NCC3CCN(CCc4ccc(C(C)(C)C)cc4)CC3)c2n1 | 220 °C |
| Cc1oc(-c2ccc(F)cc2)cc1CC(=O)O | 52 to 53 °C |
| O=C(C1CCC(Nc2nccc(-n3cc(Cc4ccc(-c5ccncc5)cc4)nn3)n2)CC1)N1CCC(O)CC1 (stereo not given) | 266 to 267 °C |
| COC(=O)C1CC(=O)C(NC(C)=O)=C(O)C1 (stereo not given) | 131 to 132 °C |
| COC(=O)c1ccccc1-c1cc(-c2ccc(OC)cc2)[nH]n1 | 92 to 93 °C |
